Where a name gives a salt, the structure may show the parent alone.

The subject of the first assay is E. coli MG1655. As to the kind of experiment: High-throughput screening of FDA-approved drug library for antibiotic adjuvants (growth inhibition, OD600).
Settings: not given
It is filed as cell-based, Escherichia coli.
For `O=C(O)c1cn(C2CC2)c2cc(N3CCNCC3)c(F)cc2c1=O` [Ciprofloxacin hydrochloride hydrate], the “Growth inhibition, Compound” value is 101%.

Another assay relates to E. coli MG1655. The description is as above. It counts as cell-based, Escherichia coli. Conditions: library drug alone, LB medium, 96-well, 8 h static culture at 37°C, relative to PMBN (positive) and DMSO (negative) controls, %, table head prints no unit.
Consider `CN(C)[C@@H]1C(O)=C(C(N)=O)C(=O)[C@@]2(O)C(O)=C3C(=O)c4c(O)cccc4[C@@](C)(O)[C@H]3[C@H](O)[C@@H]12` [Oxytetracycline Dihydrate], for which the “Growth inhibition, Compound” value stood at 101%.

Turning to `CN(C)[C@@H]1C(O)=C(C(N)=O)C(=O)[C@@]2(O)C(O)=C3C(=O)c4c(O)cccc4[C@@](C)(O)[C@H]3[C@H](O)[C@@H]12` [Oxytetracycline Hydrochloride], the “Growth inhibition, Compound” value stood at 106%.

Take `CN(C)[C@@H]1C(O)=C(C(N)=O)C(=O)[C@@]2(O)C(O)=C3C(=O)c4c(O)cccc4[C@@](C)(O)[C@H]3[C@H](O)[C@@H]12` [Oxytetracycline]: the “Growth inhibition, Compound” value amounted to 66%.

On to `CNc1ncc(-c2ccc3c(=O)c(C(=O)O)cn(C4CC4)c3c2C)cc1C` [Ozenoxacin], for which the “Growth inhibition, Compound” value turned out to be 106%.

Take `NC[C@@H]1O[C@H](O[C@H]2[C@@H](O)[C@H](O[C@@H]3[C@@H](O)[C@H](N)C[C@H](N)[C@H]3O[C@H]3O[C@H](CO)[C@@H](O)[C@H](O)[C@H]3N)O[C@@H]2CO)[C@H](N)[C@@H](O)[C@@H]1O` [Paromomycin Sulfate]: the “Growth inhibition, Compound” value amounted to 108%.

For `CS(=O)(=O)O.C[C@H]1COc2c(C3(N)CC3)c(F)cc3c(=O)c(C(=O)O)cn1c23` [Pazufloxacin Mesylate], the “Growth inhibition, Compound” value came out at 109%.

For `CC1(C)S[C@@H]2[C@H](NC(=O)Cc3ccccc3)C(=O)N2[C@H]1C(=O)O` [Penicillin G sodium salt], the “Growth inhibition, Compound” value stood at 38%.

As for `CCn1cc(C(=O)O)c(=O)c2cnc(N3CCNCC3)nc21` [Pipemidic acid], the “Growth inhibition, Compound” value amounted to 105%.

Consider `CCN1CCN(C(=O)N[C@@H](C(=O)N[C@@H]2C(=O)N3[C@@H]2SC(C)(C)[C@@H]3C(=O)O)c2ccccc2)C(=O)C1=O` [Piperacillin sodium salt], for which the “Growth inhibition, Compound” value was 88%.

With `Cc1cc(CC(C)CC(C)(C)C)n(O)c(=O)c1.NCCO` (stereo not drawn) [Piroctone olamine], the “Growth inhibition, Compound” value worked out at 54%.

Regarding `CC(C)(C)C(=O)OCOC(=O)[C@@H]1N2C(=O)[C@@H](/N=C/N3CCCCCC3)[C@H]2SC1(C)C` [Pivmecillinam hydrochloride], the “Growth inhibition, Compound” value came to 72%.

As for `Nc1ccc2cc3ccc(N)cc3nc2c1` [Proflavine Hemisulfate], the “Growth inhibition, Compound” value is on record as 54%.

Consider `Cc1oc(=O)oc1CN1CCN(c2cc3c(cc2F)c(=O)c(C(=O)O)c2n3C(C)S2)CC1` (stereo not drawn) [Prulifloxacin], for which the “Growth inhibition, Compound” value was determined as 100%.

`C=C[C@]1(C)C[C@@H](OC(=O)CS[C@@H]2C[C@H]3CC[C@@H](C2)N3C)[C@]2(C)[C@H](C)CC[C@]3(CCC(=O)[C@H]32)[C@@H](C)[C@@H]1O` [Retapamulin]: the “Growth inhibition, Compound” value was found to be 97%.

On to `NC[C@H]1O[C@H](O[C@H]2[C@H](O[C@@H]3O[C@H](CO)[C@@H](O)[C@H]3O)[C@@H](O)[C@H](N)C[C@@H]2N)[C@H](N)[C@@H](O)[C@@H]1O.O=S(=O)(O)O` [Ribostamycin sulfate], for which the “Growth inhibition, Compound” value amounted to 110%.

Turning to `CO[C@H]1/C=C/O[C@@]2(C)Oc3c(C)c(O)c4c(c3C2=O)C2=NC3(CCN(CC(C)C)CC3)NC2=C(NC(=O)/C(C)=C\C=C\[C@H](C)[C@H](O)[C@@H](C)[C@@H](O)[C@@H](C)[C@H](OC(C)=O)[C@@H]1C)C4=O` [Rifabutin], the “Growth inhibition, Compound” value was 94%.

Turning to `CO[C@H]1/C=C/O[C@@]2(C)Oc3c(C)c(O)c4c([O-])c(cc(O)c4c3C2=O)NC(=O)/C(C)=C\C=C\[C@H](C)[C@H](O)[C@@H](C)[C@@H](O)[C@@H](C)[C@H](OC(C)=O)[C@@H]1C.[Na+]` [Rifamycin sodium salt], the “Growth inhibition, Compound” value was 25%.

Take `CO[C@H]1/C=C/O[C@@]2(C)Oc3c(C)c(O)c4c(O)c(c(/C=N/N5CCN(C6CCCC6)CC5)c(O)c4c3C2=O)NC(=O)/C(C)=C\C=C\[C@H](C)[C@H](O)[C@@H](C)[C@@H](O)[C@@H](C)[C@H](OC(C)=O)[C@@H]1C` [Rifapentine]: the “Growth inhibition, Compound” value is given as 99%.

Take `CO[C@H]1/C=C/O[C@@]2(C)Oc3c(C)c(O)c4c(O)c(c5c(nc6cc(C)ccn65)c4c3C2=O)NC(=O)/C(C)=C\C=C\[C@H](C)[C@H](O)[C@@H](C)[C@@H](O)[C@@H](C)[C@H](OC(C)=O)[C@@H]1C` [Rifaximin]: the “Growth inhibition, Compound” value is 108%.

Consider `O=C(Nc1ccc(Cl)cc1)c1cc(Br)ccc1O` [Salifungin], for which the “Growth inhibition, Compound” value came out at 67%.

In the case of `O=C(O)c1cn(-c2ccc(F)cc2)c2cc(N3CCNCC3)c(F)cc2c1=O` [Sarafloxacin], the “Growth inhibition, Compound” value turned out to be 109%.

On to `CN[C@@H]1[C@@H](O)[C@@H](O[C@@H]2[C@@H](O)[C@H](O[C@H]3OC(CN)=CC[C@H]3N)[C@@H](N)C[C@H]2N)OC[C@]1(C)O` [Sisomicin Sulfate], for which the “Growth inhibition, Compound” value is recorded as 105%.

As to `N[C@@H]1CN(c2c(F)cc3c(=O)c(C(=O)O)cn([C@@H]4C[C@@H]4F)c3c2Cl)CC12CC2.N[C@@H]1CN(c2c(F)cc3c(=O)c(C(=O)O)cn([C@@H]4C[C@@H]4F)c3c2Cl)CC12CC2.O.O.O` [Sitafloxacin Hydrate], the “Growth inhibition, Compound” value is reported as 101%.

`CO/N=C(\C(=O)N[C@@H]1C(=O)N2C(C(=O)O)=C(CSC(=O)c3ccco3)CS[C@H]12)c1csc(N)n1` [Sodium ceftiofur]: the “Growth inhibition, Compound” value is 109%.

As to `C[C@@H]1CN(c2c(F)c(N)c3c(=O)c(C(=O)O)cn(C4CC4)c3c2F)C[C@H](C)N1` [Sparfloxacin], the “Growth inhibition, Compound” value stood at 96%.

For `CN[C@@H]1[C@H](O)[C@H](NC)[C@H]2O[C@@]3(O)C(=O)C[C@@H](C)O[C@H]3O[C@@H]2[C@H]1O.Cl.Cl.O.O.O.O.O` [Spectinomycin dihydrochloride pentahydrate], the “Growth inhibition, Compound” value amounted to 96%.

For the molecule `CN[C@@H]1[C@H](O)[C@H](NC)[C@H]2O[C@@]3(O)C(=O)C[C@@H](C)O[C@H]3O[C@@H]2[C@H]1O.Cl.Cl` [Spectinomycin dihydrochloride], the “Growth inhibition, Compound” value came out at 92%.

Regarding `Cc1cn([C@H]2C=C[C@@H](CO)O2)c(=O)[nH]c1=O` [Stavudine], the “Growth inhibition, Compound” value came out at 27%.

With `[H]/N=C(/N)N[C@H]1[C@H](O)[C@@H](O)[C@H](O[C@@H]2O[C@@H](C)[C@](O)(C=O)[C@H]2O[C@@H]2O[C@@H](CO)[C@H](O)[C@@H](O)[C@@H]2NC)[C@@H](N/C(N)=N\[H])[C@@H]1O` [Streptomycin sulfate], the “Growth inhibition, Compound” value turned out to be 109%.

Regarding `CC1(C)S[C@@H]2[C@H](NC(=O)C(c3ccccc3)S(=O)(=O)O)C(=O)N2[C@H]1C(=O)O.[Na].[Na]` (stereo partly drawn) [Sulbenicillin Sodium], the “Growth inhibition, Compound” value is recorded as 90%.

For `CC1(C)S[C@@H]2[C@H](NC(=O)[C@H](N)c3ccccc3)C(=O)N2[C@H]1C(=O)OCOC(=O)[C@@H]1N2C(=O)C[C@H]2S(=O)(=O)C1(C)C` [Sultamicillin Tosylate], the “Growth inhibition, Compound” value came to 93%.

For `CC1(C)S[C@@H]2[C@H](NC(=O)[C@H](N)c3ccccc3)C(=O)N2[C@H]1C(=O)OCOC(=O)[C@@H]1N2C(=O)C[C@H]2S(=O)(=O)C1(C)C` [Sultamicillin], the “Growth inhibition, Compound” value was 106%.

In the case of `OB1OCc2cc(F)ccc21` [Tavaborole], the “Growth inhibition, Compound” value stood at 91%.

On to `C[C@@H](O)[C@H]1C(=O)N2C(C(=O)O)=C(SC3CN(C4=NCCS4)C3)[C@H](C)[C@H]12` [Tebipenem], for which the “Growth inhibition, Compound” value worked out at 109%.

For `[H]/N=C(/NCCCCC)N/N=C/c1c[nH]c2ccc(OC)cc12` [Tegaserod maleate], the “Growth inhibition, Compound” value amounted to 85%.

Take `CS(=O)(=O)c1ccc([C@@H](O)[C@@H](CO)NC(=O)C(Cl)Cl)cc1` [Thiamphenicol]: the “Growth inhibition, Compound” value is listed as 66%.

As for `CC1(C)S[C@@H]2[C@H](NC(=O)[C@H](C(=O)O)c3ccsc3)C(=O)N2[C@H]1C(=O)O` [Ticarcillin disodium], the “Growth inhibition, Compound” value is on record as 86%.

For `CC1(C)S[C@@H]2[C@H](NC(=O)[C@H](C(=O)O)c3ccsc3)C(=O)N2[C@H]1C(=O)O` [Ticarcillin sodium], the “Growth inhibition, Compound” value stood at 86%.

Turning to `Nc1n[n+]([O-])c2ccccc2[n+]1[O-]` [Tirapazamine], the “Growth inhibition, Compound” value stood at 114%.

Turning to `NC[C@H]1O[C@H](O[C@H]2[C@H](O)[C@@H](O[C@H]3O[C@H](CO)[C@@H](O)[C@H](N)[C@H]3O)[C@H](N)C[C@@H]2N)[C@H](N)C[C@@H]1O` [Tobramycin], the “Growth inhibition, Compound” value was 107%.

In the case of `Cn1nnc(-c2ccc(-c3ccc(N4C[C@H](CO)OC4=O)cc3F)cn2)n1` [Torezolid], the “Growth inhibition, Compound” value is 61%.

As to `Cl.NC1CCN(c2nc3c(cc2F)c(=O)c(C(=O)O)cn3-c2ccc(F)cc2F)C1` (stereo not drawn) [Tosufloxacin hydrochloride], the “Growth inhibition, Compound” value was found to be 103%.

For `Cc1ccc(S(=O)(=O)O)cc1.NC1CCN(c2nc3c(cc2F)c(=O)c(C(=O)O)cn3-c2ccc(F)cc2F)C1.O` (stereo not drawn) [Tosufloxacin p-Toluenesulfonate Hydrate], the “Growth inhibition, Compound” value was found to be 99%.

Turning to `NC1CCN(c2nc3c(cc2F)c(=O)c(C(=O)O)cn3-c2ccc(F)cc2F)C1` (stereo not drawn) [Tosufloxacin], the “Growth inhibition, Compound” value amounted to 106%.

Take `Oc1cc(Cl)ccc1Oc1ccc(Cl)cc1Cl` [Triclosan]: the “Growth inhibition, Compound” value is reported as 79%.

Turning to `O=c1[nH]c(=O)n([C@H]2C[C@H](O)[C@@H](CO)O2)cc1C(F)(F)F` [Trifluridine], the “Growth inhibition, Compound” value was 27%.

With `N[C@@H]1[C@H]2CN(c3nc4c(cc3F)c(=O)c(C(=O)O)cn4-c3ccc(F)cc3F)C[C@@H]12` [Trovafloxacin mesylate], the “Growth inhibition, Compound” value was determined as 116%.

For the molecule `Cc1cn([C@H]2C[C@H](N=[N+]=[N-])[C@@H](CO)O2)c(=O)[nH]c1=O` [Zidovudine], the “Growth inhibition, Compound” value is on record as 95%.

As to `c1cnc2c(c1)ccc1cccnc12` [o-Phenanthroline], the “Growth inhibition, Compound” value is given as 79%.

With `CCN1CCN(C(=O)N[C@@H](C(=O)N[C@@H]2C(=O)N3[C@@H]2SC(C)(C)[C@@H]3C(=O)O)c2ccccc2)C(=O)C1=O` [piperacillin], the “Growth inhibition, Compound” value turned out to be 107%.

For the origin of these results see article PMC11358092, “Caspofungin enhances the potency of rifampin against Gram-negative bacteria” (Frontiers in Microbiology, 2024).
